In US20060088573A1, “Composition having action preventing or alleviating symtoms or diseases due to aging of blood vessels” (Suntory Limited, priority 2003, published 2006):

Test system: thoracic arteries of old rats
Test: Acetylcholine blood vessel relaxation reaction test on thoracic artery rings after 3 months of diet
Type: in vivo, rat
From the text: The effect of triglyceride (arachidonic acid-containing oil (SUNTGA40S)) having arachidonic acid as a component fatty acid prepared in Reference Example 1 on the acetylcholine blood vessel relaxation reaction was investigated using rats. As the test groups of old rats, 15 19-month old male Fischer rats were divided into a control diet group (8 rats: OC group) and a SUNTGA40S compound diet group (7 rats: OA group).
The amount of intake of rats was about 20 g and the daily intake of SUNTGA40S per rat was 100 mg. Of the total fatty acids bonded with the arachidonic acid-containing oil (SUNTGA40S) prepared in Reference Example 1, 40% is arachidonic acid, so the daily intake of arachidonic acid per rat became 40 mg. This 40 mg corresponds to 133 mg/60 kg/day converted to human intake.
In the third month of raising (in the case of old rats, 22-month age and in the case of young rats, four-month age), the thoracic arteries were excised. Part was used for the in vitro blood vessel relaxation reaction test, while the remaining blood vessels were used for analysis of the fatty acid composition. […]

For `CCCCC/C=C\C/C=C\C/C=C\C/C=C\CCCC(=O)OC(COC(=O)CCCCCCC)COC(=O)CCCCCCC` [8A8, 1,3-capryloyl-2-arachidonoyl-glycerol], the “average blood vessel relaxation rate by acetylcholine 10^-7M” value (old male Fischer rats (22-month age), 8A8 diet 3 months (40 mg arachidonic acid/rat/day), old control diet 52.3%, young control diet 80.5%) was 62.7% and the “blood vessel relaxation response” value (old rats, 8A8 diet 3 months, vs old rats on control diet) was “improved”.
